Data reported in US20060188895A1, “Rapid prognostic assay for malignancies treated with epidermal growth factor receptor” (The Johns Hopkins University, priority 2004, published 2006).
Several values for one entry are separate records, joined by “and”; a condition that tells them apart may be missing. Identical values can stand only once.

Legend:
[1] = system: HuCCT1 cells (c-fos mRNA); test: in vitro c-fos mRNA expression by quantitative RT-PCR; type: cell-based, human; settings: for c-fos levels with time compared to baseline: 24-hour exposure
Experimental: (§1) Five cell lines were used: A431, Cal27, HN11, HuCCT1, and Hep2. HN11 was a gift from Dr David Sidranski's laboratory at Johns Hopkins University (Baltimore, Md.), and A431, Cal27, HuCCT1, and Hep2 were obtained from the American Tissue Culture Collection (Manassas, Va.). A431 is a squamous cell carcinoma, Cal27, HN11 and Hep2 are derived from head and neck squamous carcinomas, and HuCCT1 is a cholangiocarcinoma. The cell lines were grown in 6-well plates with DMEM supplemented with 10% fetal bovine serum (FBS) and penicillin/streptomycin. […] The cells were incubated for 1 hour, media was aspirated, and RNA collected by direct in-well lysis with 0.5 mL of RLT (Qiagen). […] IN VITRO GROWTH INHIBITION STUDIES
(§2) In vitro RNA extraction was performed on non-confluent cells after treatment. Wells were washed with PBS and RLT lysis buffer was added. Two passes from the FNA were put in lysis buffer (Mini Rneasy manufactured by Qiagen) loaded onto a column, washed and eluted into 50 μl TE pH8. Total RNA was extracted using the RNeasy™ Mini Kit (Qiagen, Valencia, Calif.). RNA was transcribed into cDNA by reverse transcription by priming with random hexamers (M-MLTV manufactured by Promega located in Madison, Wis.). The excess hexamers were removed using a column-based clean-up kit (Qiagen).
(§3) Quantitative PCR was performed on an MX3000p thermal cycler (Stratagene) using SYBR green dye method to track the progress of the reactions with ROX dye added as reference. Beta-Globin DNA specific primers were used to test DNA contamination for each sample type. Three housekeeping genes (HPRT, UBC and SDHA) were run in parallel with test genes. The amount of change in the target gene between the control and experimental conditions was found by comparing the threshold cycle (Ct) of the target gene to the geometric mean of the threshold cycles of the housekeeping genes. The geometric mean of the Cts of each of the housekeeping genes, and a change in threshold cycle (delta Ct), between conditions were calculated (dCtHouskeeping=(CtHPRT*CtUBC*CtSDHA)control−(CtHPRT*CtUBC*CtSDHA)exp). The change in threshold cycle for the target gene was calculated directly from Ct under each condition (dCttarget=(Cttarget)control−(Cttarget)exp). The efficiency of the […] raised to its dCt gave a ratio between the control and experimental conditions normalized to the housekeeping genes (Ratio=ETarget^dCtTarget/EHousekeeping^dctHousekeeping, where E=Primer efficiency, and Ct=Threshold cycle).

Cal27 cells (c-fos mRNA) = test: as above; type: cell-based, human; settings: for c-fos after longer exposure: 24-hour exposure
Experimental: as §1, §2, §3

Hep2 cells (c-fos mRNA) = test: as above; type: cell-based, human; settings: for c-fos levels with time compared to baseline: 24-hour exposure
Experimental: as §1, §2, §3

HN11 cells (c-fos mRNA) = test: as above; type: cell-based, human; settings: for c-fos after longer exposure: 24-hour exposure
Experimental: as §1, §2, §3

A431 cells (c-fos mRNA) = test: as above; type: cell-based, human
Experimental: Five cell lines were used: A431, Cal27, HN11, HuCCT1, and Hep2. […] The cell lines were grown in 6-well plates with DMEM supplemented with 10% fetal bovine serum (FBS) and penicillin/streptomycin. […] The cells were incubated for 1 hour, media was aspirated, and RNA collected by direct in-well lysis with 0.5 mL of RLT (Qiagen).
In vitro RNA extraction was performed on non-confluent cells after treatment. Wells were washed with PBS and RLT lysis buffer was added. […] Total RNA was extracted using the RNeasy™ Mini Kit (Qiagen, Valencia, Calif.). RNA was transcribed into cDNA by reverse transcription by priming with random hexamers (M-MLTV manufactured by Promega located in Madison, Wis.). The excess hexamers were removed using a column-based clean-up kit (Qiagen).
Quantitative PCR was performed on an MX3000p thermal cycler (Stratagene) using SYBR green dye method to track the progress of the reactions with ROX dye added as reference. Beta-Globin DNA specific primers were used to test DNA contamination for each sample type. […] The geometric mean of the Cts of each of the housekeeping genes, and a change in threshold cycle (delta Ct), between conditions were calculated (dCtHouskeeping=(CtHPRT*CtUBC*CtSDHA)control−(CtHPRT*CtUBC*CtSDHA)exp). The change in threshold cycle for the target gene was calculated directly from Ct under each condition (dCttarget=(Cttarget)control−(Cttarget)exp).

Hep2 xenograft tumors = test: in vivo growth inhibition and tumor c-fos, xenograft; design: species or system athymic nude mice
Experimental: (§4) Five groups of 14-16 six-week-old female athymic nude mice (Harlan, Ind., US) were used. 1.5-5×10^6 A431, CAL27, HN11, HuCCT1, and Hep2 cells were injected subcutaneously in each flank. […].
(§5) FNAs on mice were performed according to standard cytopathologic practice under inhaled general anesthesia (isofluorane) using 10 cc syringes and 25-gauge needles. During each FNA procedure the first pass was smeared onto glass slides and used for morphologic analysis, (DiffQuik™ and Papanicoloau), and the second and third passes for RNA extraction. Eighteen A431 tumors, fourteen CAL27 tumors, eighteen HN11 tumors, fourteen HuCCT1 tumors, and sixteen Hep2 tumors were tested. FNAs were performed at baseline and after 14 days of therapy for each of the tumors. Tumor biopsies on patients were performed following an ultrasonographic-guided, FNA-assisted methodology, with on-site cytopathologic assessment of tissue adequacy at baseline and after 28 days of therapy.
as §2, §3

CAL27 xenograft tumors = test: as above; design: species or system athymic nude mice
Experimental: as §4, §5, §2, §3

HN11 xenograft tumors = test: as above; design: species or system athymic nude mice
Experimental: as §4, §5, §2, §3

[2] = system: CAL27 xenograft tumors (c-fos mRNA); test: ex vivo molecular assay (c-fos) on FNA material; type: cell-based, mice; settings: FNA material from seven CAL27 xenograft tumors; with EGF, 30 to 60 minutes
Experimental: as §5
In vitro RNA extraction was performed on non-confluent cells after treatment. […]
(§6) Quantitative PCR was performed on an MX3000p thermal cycler (Stratagene) using SYBR green dye method to track the progress of the reactions with ROX dye added as reference. […] The geometric mean of the Cts of each of the housekeeping genes, and a change in threshold cycle (delta Ct), between conditions were calculated (dCtHouskeeping=(CtHPRT*CtUBC*CtSDHA)control−(CtHPRT*CtUBC*CtSDHA)exp). The change in threshold cycle for the target gene was calculated directly from Ct under each condition (dCttarget=(Cttarget)control−(Cttarget)exp). […]

HuCCT1 cells = test: cells; type: cell-based; settings: Homo sapiens, HuCCT-1, MTT, 72 hours, 10% FBS, read-out: IC50 growth inhibition
Cal27 cells = type: cell-based, human; settings: CAL27 (EGF-inducible c-fos line); 0-10 μM, 72 hours, 10% FBS
Hep2 cells = test: cells; type: cell-based; settings: Homo sapiens, HEp-2, MTT, 72 hours, 10% FBS, read-out: IC50 growth inhibition
HN11 cells = type: cell-based, human; settings: HN11 (EGF-inducible c-fos line); 0-10 μM, 72 hours, 10% FBS
[3] = system: metastatic or inoperable malignancy; test: clinical response of patients treated with gefitinib; type: in vivo; settings: five patients; 500 mg daily; 2, 4, 2, 2 and 5+ 1-month cycles
Source text: Patients were required to be 18 years of age or older, and have histologically documented metastatic or inoperable malignancy amenable to sequential biopsies, and for which there was no known curative or standard palliative regimen (or failure of such regimens have occurred). […] The scientific review board of our institution granted protocol approval and patients were required to provide written informed consent prior to enrollment into the study.

HuCCT1 xenograft tumors = test: in vivo growth inhibition and tumor c-fos, xenograft; design: species or system athymic nude mice
Experimental: as §4, §5, §2, §3

A431 xenograft tumors = test: as above; design: species or system athymic nude mice
Experimental: as §4, §5, §2, §3

[4] = system: Ki67 proliferation index in patient tumor samples; test: Ki67 proliferation index in paired patient tumor samples (immunohistochemistry); type: in vivo, patients; settings: patient #3; 500 mg/day (FIG. 7 legend)
Experimental: FNAs on mice were performed according to standard cytopathologic practice under inhaled general anesthesia (isofluorane) using 10 cc syringes and 25-gauge needles. During each FNA procedure the first pass was smeared onto glass slides and used for morphologic analysis, (DiffQuik™ and Papanicoloau), and the second and third passes for RNA extraction. […] FNAs were performed at baseline and after 14 days of therapy for each of the tumors. Tumor biopsies on patients were performed following an ultrasonographic-guided, FNA-assisted methodology, with on-site cytopathologic assessment of tissue adequacy at baseline and after 28 days of therapy.
Core biopsies from patients were processed using standard procedures (formalin-fixed, and paraffin embedded). Five-micron sections were used for Ki67 staining that was performed following the manufacturer's instructions (M7187 manufactured by DAKO located in Carpinteria, Calif.).

[5] = system: c-fos in patient tumor samples; test: c-fos in paired patient tumor samples; type: in vivo, patients
Experimental: as §5, with “therapy. […]” for “therapy.”
as §6

[6] = 50 mgr/kg IP once a day for 14 days
[7] = day 14 treated vs control, P<0.05
[8] = EGF 100 ng/mL, normalized to media
[9] = 10 μM, 1-hour exposure, with EGF
[10] = 100 mgr/kg IP once a day for 14 days

## C#Cc1cccc(Nc2ncnc3cc(OCCOC)c(OCCOC)cc23)c1 [erlotinib]
[1]
  c-fos levels with time compared to baseline: minimally increased
Cal27 cells (c-fos mRNA)
  c-fos after longer exposure: lasting c-fos downregulation
Hep2 cells (c-fos mRNA)
  c-fos levels with time compared to baseline: minimally increased
HN11 cells (c-fos mRNA)
  c-fos after longer exposure: lasting c-fos downregulation
A431 cells (c-fos mRNA); 24-hour exposure
  c-fos after longer exposure: lasting c-fos downregulation
Hep2 xenograft tumors; [6]
  tumor growth response: no response
Hep2 xenograft tumors; 14 days of therapy
  tumor c-fos levels: unchanged
CAL27 xenograft tumors; [6]
  tumor growth: growth arrest
CAL27 xenograft tumors; day 14 treated vs control, P=0.07
  effect on progressive increase in tumor c-fos expression: significantly abrogate
HN11 xenograft tumors; [6]
  tumor growth: growth arrest
HN11 xenograft tumors; [7]
  effect on progressive increase in tumor c-fos expression: significantly abrogate
[2]
  effect on EGF-induced c-fos upregulation: abrogation of this response
HuCCT1 cells
  IC50: > 10 µM
Cal27 cells
  in vitro sensitivity (growth inhibition, MTT): high
Hep2 cells
  IC50: > 10 µM
HN11 cells
  in vitro sensitivity (growth inhibition, MTT): high

## EGF: human epidermal growth factor 100 ng/mL (EGF; Sigma), EGFR ligand used as stimulus
[1]; [8]
  c-fos increase upon exposure to EGF: 3.6 fold
Cal27 cells (c-fos mRNA); [8]
  c-fos mRNA level after brief exposure to EGF: 151 fold
Hep2 cells (c-fos mRNA); [8]
  c-fos increase upon exposure to EGF: 4.1 fold
HN11 cells (c-fos mRNA); [8]
  c-fos mRNA level after brief exposure to EGF: 86 fold
A431 cells (c-fos mRNA); [8]
  c-fos mRNA level after brief exposure to EGF: 126 fold

## COc1cc2ncnc(Nc3ccc(F)c(Cl)c3)c2cc1OCCCN1CCOCC1 [gefitinib]
[1]
  c-fos levels with time compared to baseline: minimally increased
[1]; without EGF, 1 hour
  effect of drug alone on c-fos levels: no effect
Cal27 cells (c-fos mRNA); [9]
  effect on EGF-induced c-fos increment: abrogated
Cal27 cells (c-fos mRNA)
  c-fos after longer exposure: lasting c-fos downregulation
Cal27 cells (c-fos mRNA); without EGF, 1 hour
  effect of drug alone on c-fos levels: decreased c-fos levels
Hep2 cells (c-fos mRNA)
  c-fos levels with time compared to baseline: minimally increased
Hep2 cells (c-fos mRNA); without EGF, 1 hour
  effect of drug alone on c-fos levels: no effect
HN11 cells (c-fos mRNA); [9]
  effect on EGF-induced c-fos increment: abrogated
HN11 cells (c-fos mRNA)
  c-fos after longer exposure: lasting c-fos downregulation
HN11 cells (c-fos mRNA); without EGF, 1 hour
  effect of drug alone on c-fos levels: decreased c-fos levels
[3]
  objective response: No objective, confirmed responses
HuCCT1 xenograft tumors; [10]
  tumor growth response: no response
HuCCT1 xenograft tumors; 14 days of therapy
  tumor c-fos levels: unchanged
A431 xenograft tumors; [10]
  tumor growth: growth arrest
A431 xenograft tumors; [7]
  effect on progressive increase in tumor c-fos expression: significantly abrogate
[4]
  reduction of Ki67: 45%
[5]; patient #3, 500 mg/day (FIG. 7 legend)
  change in c-fos: increase
[5]; two patients with decrease, 500 mg daily
  tumor c-fos after 28 days, of baseline values: 56% and 37%
